According to PMC12566046, “Arylpiperazinyl-Benzocycloheptapyrrole-Carboxamides Endowed with Dual Anticancer and Antiviral Activities” (Molecules, 2025):
Like-named read-outs stand apart in the source and are kept apart here.

Experiments:
[1] = test system: SK-MEL-5 (melanoma cell line); assay: NCI-60 single-dose assay; type: cell-based, human; conditions: human
Summary of the method: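 Single-dose cytotoxicity test run in the NCI-60 panel of human cancer cell lines. Threshold inhibition criteria across a minimum number of lines decided progression to five-dose testing.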

[2] = test system: SARS-CoV-2 VR PV10734 (strain Milano); assay: microbe, parasite or virus in culture; type: cell-based; conditions: for selectivity index (SI): CC50/EC50
[3] = test system: K-562 (leukemia cell line); assay: NCI-60 single-dose assay; type: cell-based; conditions: Homo sapiens, K562, read-out: growth inhibition (GI%) and cytotoxicity (negative values)
From the text: (§1) We first evaluated the cytotoxic activity of tricyclic-pyrrole carboxamides 1–20 using the NCI-60 cell line panel, representing nine different human cancers: leukemia, melanoma, and cancers of the lung, colon, central nervous system (CNS), ovary, kidney, prostate, and breast (the one-dose graph for compounds 1–20 is reported in Supplementary Materials, Figures S43–S62). Compounds 1, 5, 10, 11, 17, and 20 satisfied pre-determined threshold inhibition criteria in a minimum number of cell lines; therefore, they were also tested in the full five-dose assay (Figures S63–S68 in the Supplementary Materials).

in vitro [4] = conditions: dog
[5] = Cytotoxicity on uninfected Huh-7 cells (WST-8, crystal violet); conditions: human, uninfected Huh-7 cells
Protocol: The toxicity of the compounds at the same concentration was tested on the same cells in parallel.
Cytotoxic effects were evaluated on uninfected cells using the WST-8 assay (Orangu, Cell Guidance Systems, Cambridge, UK) and the crystal violet assay [23]. […] Huh-7, MDCK, and Vero TMPRSS cells were seeded at 1 × 10^4, 1.5 × 10^4, and 1.2 × 10^4 cells/well, respectively, and incubated for 48 h (Huh-7 and MDCK) or 24 h (VERO TMPRSS), following conditions matching those of the corresponding antiviral assays in terms of timing and culture medium. At the end of incubation, the medium was replaced with a 10% WST-8 solution in DMEM and incubated for 1 h at 37 °C. Optical density (OD) was then measured at 450 nm using a Varioskan LUX plate reader (ThermoFisher Scientific, Milano, Italy). Subsequently, cells were fixed with 4% buffered formalin solution (Merck®, Darmstadt, Germany), stained with 1% crystal violet (Merck®, Darmstadt, Germany), and the dye was solubilized in 30% acetic acid for 30 min under shaking. OD was then measured at 595 nm as an additional readout of cell viability. The percentage of viability at each concentration was calculated using the formula:% viability = 100 × (ODcompound/ODuntreated control) where ODcompound and ODuntreated are the OD of the cells treated with compound or DMSO, respectively.
The CC50 value was determined by nonlinear regression analysis on GraphPad Prism 7 (San Diego, CA, USA).

[6] = test system: ZIKV, strain Brazil/2016/INMI1; assay: ZIKV viral yield reduction assay on Huh-7 cells; type: cell-based, Zika virus
Protocol: We developed a protocol to screen the potential antiviral activity of compounds 1–20 against ZIKV (strain Brazil) on Huh-7 cells, against an H1N1 IAV strain (PR/8/1934) on MDCK cells, and against SARS-CoV-2 (strain Milano) on Vero-TMPRSS. Each compound was tested in duplicate at concentrations of 50 μM, 5 μM, and 0.5 μM. Treatment was applied immediately after infection, and at 24–48 h post-infection, supernatants were collected to assess viral yield, determined as PFU/mL for ZIKV and SARS-CoV-2 or as TCID50/mL for IAV. The test allowed us to evaluate both the antiviral action and the cytotoxicity of each compound, comparing them with reference compounds, such as sofosbuvir for ZIKV and EIDD-1931 for IAV and SARS-CoV-2 (Supplementary Materials, Figures S87–S89).
Viral yield reduction assays for ZIKV and SARS-CoV-2 were performed as previously described by Plicanti. Briefly, 1 × 10^4 Huh-7 cells/well and 1.2 × 10^4 VERO TMPRSS cells/well were infected with ZIKV (MOI 1) or SARS-CoV-2 (MOI 0.05) in a primary 96-well plate for 2 h at 37 °C, 5% CO2. […] Supernatants were collected after 48 h (Huh-7) or 24 h (VERO TMPRSS), diluted 3-fold, and added onto VERO E6 or VERO TMPRSS monolayers, respectively. After 2 h at 37 °C, the inoculum was replaced with 0.75% carboxymethyl cellulose (Merck®, Darmstadt, Germany) in DMEM 2% FBS. After 48–72 h, cells were then fixed with 4% buffered formalin solution (Merck®, Darmstadt, Germany) and stained with 1% crystal violet (Merck®, Darmstadt, Germany). Titres and percentage of inhibition were calculated as follows:
PFU/mL = number of plaques*3^n/vol infection, where n is the dilution where plaques were counted:% inhibition = 100 × (1 − Titre-compound/Titre-untreated control) where Titre-compound and Titre-untreated control are the titres (PFU/mL) obtained on cells treated with compound or DMSO, respectively.
SI was obtained by dividing CC50 by EC50 for each drug/virus/cell line. Compounds with SI values ≥ 10 were active in vitro.

[7] = test system: IAV strain A/PR/8/34 (H1N1); conditions: for IAV/MDCK SI: preliminary screening
in vitro [8] = conditions: African green monkey
NCI-60 cell line panel = assay: NCI-60 single-dose assay, whole panel; type: cell-based, human; conditions: summary over the panel
From the text: as §1

Ovarian Cancer panel = assay: NCI-60 five-dose assay, panel-level GI50 (mean graph midpoint); type: cell-based, human; conditions: Ovarian Cancer panel average; read-out: GI50 mean graph midpoint (MG_MID)
Protocol: (§2) Due to these preliminary results, six compounds, 1, 5, 10, 11, 17, and 20, were selected for the five-dose screen NCI-programme against the same panel of tumour cell lines.
(§3) Next, a mean graph midpoint (MG_MD) was calculated for compounds 1, 5, 10, 11, 17, and 20 and reported as waterfall graphs GI50, TGI, and LC50 in the Supplementary Materials (Figures S69–S86). In Table 9, we reported the average GI50 for the nine-cancer panels, underlining both the activity and selectivity for compounds 1, 10, 11, and 20.

CNS Cancer panel = assay: as above; type: cell-based, human; conditions: CNS Cancer panel average; read-out: GI50 mean graph midpoint (MG_MID)
Protocol: as §2, §3

Prostate Cancer panel = assay: as above; type: cell-based, human; conditions: Prostate Cancer panel average; read-out: GI50 mean graph midpoint (MG_MID)
Protocol: as §2, §3

Renal Cancer panel = assay: as above; type: cell-based, human; conditions: Renal Cancer panel average; read-out: GI50 mean graph midpoint (MG_MID)
Protocol: as §2, §3

Breast Cancer panel = assay: as above; type: cell-based, human; conditions: Breast Cancer panel average; read-out: GI50 mean graph midpoint (MG_MID)
Protocol: as §2, §3

[9] = test system: Non-Small Cell Lung Cancer panel; assay: as above; type: cell-based, human; conditions: Non-Small Cell Lung Cancer panel average; read-out: GI50 mean graph midpoint (MG_MID)
Protocol: as §2, §3

[10] = test system: COLO 205 (colon cancer cell line); assay: NCI-60 five-dose assay; type: cell-based, human; conditions: five doses (10^−4–10^−8 M), read-out: Growth inhibition 50 (GI50)
[11] = test system: CCRF-CEM (leukemia cell line); assay: NCI-60 five-dose assay; type: cell-based, human; conditions: five doses (10^−4–10^−8 M), read-out: Growth inhibition 50 (GI50)
[12] = test system: RPMI-8226 (leukemia cell line); assay: NCI-60 five-dose assay; type: cell-based, human; conditions: five doses (10^−4–10^−8 M), read-out: Growth inhibition 50 (GI50)
[13] = test system: MOLT-4 (leukemia cell line); assay: NCI-60 five-dose assay; type: cell-based, human; conditions: five doses (10^−4–10^−8 M), read-out: Growth inhibition 50 (GI50)
[14] = test system: SK-MEL-5 (melanoma cell line); assay: NCI-60 five-dose assay; conditions: SK-MEL-5
[15] = Severe acute respiratory syndrome coronavirus 2, SARS-CoV-2, VERO TMPRSS cells, 24 h, full dose-response, read-out: EC50
[16] = Severe acute respiratory syndrome coronavirus 2, preliminary screening (50, 5, 0.5 μM), Vero TMPRSS, read-out: SARS‐CoV‐2/Vero TMPRSS EC50
[17] = Zika virus, preliminary screening (50, 5, 0.5 μM), Huh-7, read-out: ZIKV/Huh‐7 EC50
[18] = Zika virus, Huh-7, read-out: ZIKV/Huh‐7 EC50

Compound | growth inhibition (GI%) and cytotoxicity (negative values) [1] | EC50 [2, 16] | inhibition at 10 µM [3] | CC50 (in vitro [4]) | CC50 at 48 h [5] | EC50 [6, 17] | IAV/MDCK SI [7] | CC50 at 24 h (in vitro [8]) | EC50 [6, 18] | growth inhibition (GI%) reached against cancer cell lines of the NCI-60 panel (NCI-60 cell line panel) | also measured
O=C(NCCN1CCN(c2ccccc2)CC1)c1c(Cl)[nH]c2c1CCCc1ccccc1-2 [Compound 12, 2-Chloro-N-(2-(4-phenylpiperazin-1-yl)ethyl)-1,4,5,6-tetrahydrobenzo[6,7]cyclohepta[1,2-b]pyrrole-3-carboxamide] | −7.83% | 2.26 µM | 70.9% | 32.1 µM | 34.2 µM | 1.54 µM | 9.18 | 72.8 µM |  |  | selectivity index (SI) ([2]; SARS-CoV-2, VERO TMPRSS cells): 63.63; EC50 [2, 15]: 1.17 µM; CC50 (in vitro [8]): 74.5 µM
O=C(NCCN1CCN(c2ccccc2Cl)CC1)c1c(Cl)[nH]c2c1CCCc1ccccc1-2 [Compound 14] | −3.84% |  | 70.3% | 15.6 µM | 30.2 µM | 4.74 µM |  | 36.7 µM |  |  | 
COc1ccccc1N1CCN(CCNC(=O)c2c(Cl)[nH]c3c2CCCc2ccccc2-3)CC1 [Compound 15] | −75.22% | 40.6 µM | 92.7% | 8.29 µM | 9.43 µM |  | 0.47 | 38 µM | 4.74 µM |  | 
COc1ccccc1N1CCN(CCNC(=O)c2[nH]c3c(c2Cl)CCCc2ccccc2-3)CC1 [Compound 5] | −62.59% | 34.9 µM | 95.8% | 11 µM | 24.3 µM |  |  | 29.4 µM | 3.82 µM | > 90% | 
CCOc1ccccc1N1CCN(CCNC(=O)c2c(Cl)[nH]c3c2CCCc2ccccc2-3)CC1 [Compound 17] | −88.73% |  | 100% | 8.13 µM | 16.4 µM | 4.46 µM | 0.23 | 37.2 µM |  | > 90% | 
N#Cc1ccccc1N1CCN(CCNC(=O)c2c(Cl)[nH]c3c2CCCc2ccccc2-3)CC1 [Compound 18, 2-Chloro-N-(2-(4-(2-cyanophenyl)piperazin-1-yl)ethyl)-1,4,5,6-tetrahydrobenzo[6,7]cyclohepta[1,2-b]pyrrole-3-carboxamide] | −67.02% |  | 75.3% | 13.9 µM | 15.5 µM | 4.11 µM | 0.28 | 35 µM |  | > 90% | 
N-(3-(4-Benzylpiperazin-1-yl)propyl)-2-chloro-1,4,5,6-tetrahydrobenzo[6,7]cyclohepta[1,2-b]pyrrole-2-carboxamide [Compound 11] |  |  |  |  |  |  | 0.30 |  |  | > 90% | EC50 ([2]; preliminary screening (50, 5, 0.5 μM), Vero TMPRSS, read-out: SARS‐CoV‐2/Vero TMPRSS EC50): 17.7 µM; GI50 (Ovarian Cancer panel): 7.94 µM; GI50 (CNS Cancer panel): 5.25 µM; GI50 (Prostate Cancer panel): 5.13 µM; GI50 (Renal Cancer panel): 5.89 µM; GI50 (Breast Cancer panel): 3.47 µM; GI50 [9]: 7.08 µM; GI50 [10]: 1.65 µM; GI50 [11]: 3.89 µM; GI50 [12]: 2.2 µM; GI50 [13]: 2.69 µM; EC50 ([6]; preliminary screening (50, 5, 0.5 μM), Huh-7, read-out: ZIKV/Huh‐7 EC50): 3.49 µM; EC50 ([7]; read-out: IAV/MDCK EC50, preliminary screening (50, 5, 0.5 μM), MDCK): 17.7 µM; TGI (molar concentration giving total growth inhibition) [14]: 3.09 µM; GI50 ([14]; read-out: Growth inhibition 50 (GI50), five doses (10^−4–10^−8 M)): 1.72 µM; CC50 ([14]; read-out: LC50 (molar concentration leading to 50% net cell death)): 5.62 µM
O=C(NCCN1CCN(c2ccc(Cl)cc2)CC1)c1c(Cl)[nH]c2c1CCCc1ccccc1-2 [Compound 13] | −21.64% | > 0.5 µM | 70.9% |  | 57.9 µM |  | 5.45 | 77.2 µM | 1.3 µM |  | selectivity index (SI) ([2]; SARS-CoV-2, VERO TMPRSS cells): 150.00; EC50 [2, 15]: 0.66 µM; selectivity index (SI) ([6]; ZIKV, Huh-7 cells, CC50/EC50): 20.20; EC50 ([6]; Zika virus, Huh-7, 48 h): 3.08 µM; CC50 (in vitro [8]): 99 µM
